Test results as given in patent publication US8969333B2, “Therapeutic compositions and methods” (The Penn State Research Foundation, priority 2010, dated 2015).
pIC50: −log10 of the molar value.

Experiments:
[1] = system: U2OS human osteosarcoma cells; experiment: MTT assay of U2OS cancer cell growth inhibition; format: cell-based
Protocol: MIT assays are conducted to evaluate activity to inhibit cancer cell growth. U2OS human osteosarcoma cells were treated with individual compounds at different concentrations for 72 hr in 24-well plates. MIT reagent was added to a final concentration of 0.5 mg/ml and further incubated for 4 hr. The yellow-colored MTT was reduced to insoluble purple-colored Formazan in living cells. Culture medium was removed and DMSO was added to dissolve Formazan into solution. The absorbance of the solution was then measured at 570 nm using a Thermo BioMate™ 3 spectrophotometer. Results are shown in FIG. 1 and average and standard deviations are shown (n>=3).
(§1) Cells were treated with individual compounds at different concentrations for 72 hr in 24-well plates. MTT reagent was added to a final concentration of 0.5 mg/ml and further incubated for 4 hr. The yellow-colored MTT was reduced to insoluble purple-colored Formazan in living cells. Culture medium was removed and DMSO was added to dissolve Formazan into solution. The absorbance of the solution was then measured at 570 nm using a Thermo BioMate™ 3 spectrophotometer.

[2] = system: S180 cells; experiment: MTT assay of S180 cell growth inhibition; format: cell-based; conditions: Mus musculus, S-180
Protocol: as §1

[3] = system: S180 tumor; experiment: Sarcoma S180 cell-derived mouse tumor model; format: in vivo; conditions: YW3-56 10 mg/kg i.p. daily for 1 week
Text: A well-established sarcoma S180 cell-derived mouse tumor model is used in this example to determine the effects of PAD4 inhibitors of the present invention on tumor growth in mice.
S180 ascites tumor cells were used to form solid tumors after subcutaneous injection essentially as described in Wang, W. et al., Mol. Biosyst., 2011, 7:766-772. In brief, for initiation of subcutaneous tumors, the cells were obtained as an ascitic form from the tumor-bearing mice, which were serially transplanted once per week. Subcutaneous tumors were implanted by injecting 0.2 ml of 0.9% saline containing 1×10^7 viable tumor cells under the skin on the right armpit. 24 hr after implantation, male ICR mice were randomly divided into experimental groups. The mice in the positive control group were given a daily i.p injection of 2 mg/kg of doxorubicin in 0.2 ml of 0.9% saline for 7 consecutive days. The mice in the negative control group were given a daily i.p injection of 0.2 ml of 0.9% saline for 7 consecutive days. The mice in the treatment groups were given a daily i.p injection of YW3-56 (10 mg/kg), SAHA (5 mg/kg), or a combination of YW3-56 (5 mg/kg) and SAHA (2.5 mg/kg) for 7 consecutive days. The weights of the mice were recorded every day. 24 hr after the last administration, all mice were weighed, euthanized and immediately dissected to obtain and weigh the tumor and vital organs.

[4] = system: p53 and its target genes; experiment: RT-qPCR of p53 and its target gene mRNA in liver and spleen of treated nude mice; format: in vivo, mouse; conditions: YW3-56 10 mg/kg, 3 months
Protocol: (§2) RNA was extracted using RNeasy Mini Kit (Qiagen) per manufacturer's instructions. 1 μg RNA was reverse transcribed into cDNA using qScript cDNA SuperMix (Quanta Biosciences) per manufacturer's instructions. Quantitative PCR was performed using SYBR Green SuperMix (Quanta Biosciences) in StepOnePlus Real-Time PCR System (Applied Biosystems). FIG. 10 is a graph showing p53 and its target gene expression induced in S180 cells by YW3-56 in a concentration dependent manner.
Expression of p53 and its target genes in mouse liver and spleen after YW3-56 injection at 10 mg/kg body weight once every two days for 3 months.
FIGS. 11a and 11b show results of the effect of long term YW3-56 treatment in mice. A pair of nude mice is mock injected or injected with YW3-56 for three months. RT-qPCR analyses of p53 and its target gene mRNA levels in control and YW3-56 treated mice. […] However, these changes are at low levels and no clear change in liver weight and morphology is observed.

[5] = system: p53 and its target genes; experiment: RT-qPCR and Western blot of p53 and its target genes in U2OS cells; format: cell-based, human
Protocol: Western blot and immunostaining was performed essentially as described in Li, P. et al., Oncogene 29 (21), 3153-3162 (2010). Antibodies used in Western blot were anti-p53 (Sigma), anti-PAD4, anti-p21 (Sigma), anti-PUMA (Calbiochem), anti-SESN2 (Abeam), anti-p70S6K (Cell Signaling), anti-p70S6K-pT389 (Cell Signaling), anti-LC3 (Cell Signaling) and anti-β-actin (Sigma) at appropriate dilutions. Anti-LC3B antibody (Cell Signaling) was used for immunostaining. DNA was stained by the DNA dye Hoechst.
as §2
U2OS and S-180 cells were cultured in Dulbecco modified Eagle medium (DMEM) supplemented with 10% fetal bovine serum and 1% penicillin-streptomycin in a 5% CO2 incubator. U2OS p53-shRNA and U2OS Ctrl-shRNA cells were generated as described in Li, P. et al., Regulation of p53 target gene expression by peptidylarginine deiminase 4. Mol Cell Bial 28 (15), 4745-4758 (2008). Concentrations and duration of YW3-56 treatment were performed as specified in the figures and text. For starvation assay, U2OS cells were first cultured in serum-free DMEM for 16 hr, 10% fetal bovine serum and different concentrations of YW3-56 was then added back and cells were further incubated for 8 hr before further analyses. SESN2 siRNA (Santa Cruz) and GFP siRNA (Dharmacon Inc.) were transfected into U2OS cells using the XtremeGene siRNA transfection reagents (Roche Inc.). Cells were incubated in the presence of the siRNA for 48 hr before adding YW3-56 and further incubated for 8 hr before analyses.
The relative abundance of each gene is compared with β-actin as a reference. Increase in several p53 target genes, such as p21, GADD45, PUMA, OKL38, DRAM, and Sestrin2, is detected after YW3-88 treatment at 12 μM concentration. […] Increase in p21 and PUMA proteins is detected.

pIC50 ([1]; Homo sapiens, read-out: 50% inhibition Cell growth, U2OS cells, MTT, 72 hr): ~5.60
SMILES: CN(C)c1ccc2cc(C(=O)N[C@@H](CCCNC(=N)CCl)C(=O)NCc3ccccc3)ccc2c1 [YW3-56]
U2OS cell growth in MTT assay ([1]; 20 μM, 3 days): abolished cell growth | pIC50 [2]: 4.82 to 5.00 | growth of S180 tumor relative to control group [3]: ~51.5% | OKL38 mRNA change in liver ([4]; decrease): ~2 fold | PUMA mRNA change in liver ([4]; decrease): ~2 fold | p21 mRNA change in liver ([4]; increase): ~2 fold | p53 mRNA change in liver ([4]; increase): ~2 fold | changes in gene expression in spleen ([4]; 2-fold expression change as cut off): not detected | DRAM mRNA ([5]; U2OS cells): not altered | p70S6K phosphorylation ([5]; U2OS cells with or without p53 depletion): inhibited | sestrin1 and 2 mRNA and Sestrin2 protein levels ([5]; U2OS cells, concentration dependent): significantly increased
